In one experiment the target is T1, hSNORF33 (Homo sapiens, UniProt Q96RJ0).
T1 sequence (Q96RJ0 1-339): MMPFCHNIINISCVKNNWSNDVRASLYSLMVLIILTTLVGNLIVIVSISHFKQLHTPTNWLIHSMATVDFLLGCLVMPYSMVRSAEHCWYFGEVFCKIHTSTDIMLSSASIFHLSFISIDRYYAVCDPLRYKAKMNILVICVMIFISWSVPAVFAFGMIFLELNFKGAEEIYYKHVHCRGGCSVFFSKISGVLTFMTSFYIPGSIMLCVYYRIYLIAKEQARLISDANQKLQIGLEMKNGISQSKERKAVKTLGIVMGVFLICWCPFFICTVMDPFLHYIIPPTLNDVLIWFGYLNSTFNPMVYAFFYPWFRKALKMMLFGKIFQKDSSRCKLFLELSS
Nature of the experiment: [3H]-TYR binding (saturation and displacement) to human SNORF33 COS-7 membranes. Also on record: expressed in transfected cells; host or cells: COS-7 (membranes). The note with it: for Ki: human SNORF33 in transfected COS-7 membranes, read-out: Mean Ki ± S.D.M., displacement of [3H]-tyramine. The method, then: (§1) [^3H]-TYR and [^3H]-T binding assays were performed essentially as described by Mallard et al. (1992), with minor modifications. Radioligand binding assays were performed by diluting membranes prepared from cells expressing the receptor (with co-expression of the rat G-protein alpha S subunit for human SNORF33) in 25 mM Gly-Gly buffer (Sigma, pH=7.4 @ 0° C.) containing 5 mM ascorbate and 10 μM pargyline (final protein concentration in assay=100-300 μg/ml). Membranes were then incubated with either [^3H]-TYR (American Radiochemicals, specific activity 60 mCi/μmole) or [^3H]-T (Amersham, specific activity 98 mCi/μmole) in the presence or absence of competing ligands on ice for 30 min in a total volume of 250 μl in 96 well microtiter plates. The bound ligand was separated from free by filtration through GF/B filters presoaked in 0.5% polyethyleneimine (PEI), using Tomtec (Wallac) or Brandel Cell Harvester vacuum filtration device. After addition of Ready Safe (Beckman) scintillation fluid, bound radioactivity was quantitated using a Trilux (Wallac) scintillation counter (approximately 20% counting efficiency of bound counts). Data was fit to non-linear curves using GraphPad Prism.
(§2) In this manner, agonist or antagonist compounds that bind to the receptor may be identified as they inhibit the binding of the labeled ligand to the membrane protein of cells expressing the said receptor. Non-specific binding was defined as the amount of radioactivity remaining after incubation of membrane protein in the presence of 10 μM of the unlabeled amine corresponding to the radioligand used. In equilibrium saturation binding assays, membrane preparations or intact cells transfected with the receptor are incubated in the presence of increasing concentrations of the labeled compound to determine the binding affinity of the labeled ligand. The binding affinities of unlabeled compounds may be determined in equilibrium competition binding assays, using a fixed concentration of labeled compound in the presence of varying concentrations of the displacing ligands.

The target in experiment [1] is T2, rSNORF33 (Rattus norvegicus, UniProt Q923Y9). Nature of the experiment: [3H]-TYR binding (saturation and displacement) to rSNORF33-transfected COS-7 membranes. As to conditions: for Ki: rSNORF33 in transfected COS-7 membranes, 2–4 experiments, read-out: Mean Ki ± S.D.M., displacement of [3H]-tyramine. The arrangement: expressed in transfected cells; host or cells: COS-7 (transient). The method, then: as §1, with “Radioligand” for “[^3H]-TYR and [^3H]-T binding assays were performed essentially as described by Mallard et al. (1992), with minor modifications. Radioligand”
T2 sequence (Q923Y9 whole entry): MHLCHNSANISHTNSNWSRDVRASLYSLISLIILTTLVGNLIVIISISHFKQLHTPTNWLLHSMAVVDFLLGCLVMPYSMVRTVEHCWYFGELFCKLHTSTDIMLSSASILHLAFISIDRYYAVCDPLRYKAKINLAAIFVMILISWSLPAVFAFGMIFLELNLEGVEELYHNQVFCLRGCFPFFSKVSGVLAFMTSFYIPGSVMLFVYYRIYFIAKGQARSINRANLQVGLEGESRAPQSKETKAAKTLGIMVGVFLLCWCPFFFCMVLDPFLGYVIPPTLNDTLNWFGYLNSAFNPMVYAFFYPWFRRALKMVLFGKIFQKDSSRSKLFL
as §2

The target in experiment [2] is T2, rSNORF33. Description: Intracellular cAMP release in rSNORF33-transfected COS-7 cells. As to conditions: for Agonist activity at cloned rSNORF33 receptor: data not shown. Also on record: expressed in transfected cells; host or cells: COS-7 (transient). Type of experiment: cell-based. The method, then:
The receptor-mediated stimulation or inhibition of cyclic AMP (cAMP) formation may be assayed in cells expressing the mammalian receptors. Cells are plated in 96-well plates or other vessels and preincubated in a buffer such as HEPES buffered saline (NaCl (150 mM), CaCl2 (1 mM), KCl (5 mM), glucose (10 mM)) supplemented with a phosphodiesterase inhibitor such as 5 mM theophylline, with or without protease inhibitor cocktail (For example, a typical inhibitor cocktail contains 2 μg/ml aprotinin, […] leupeptin, and 10 μg/ml phosphoramidon.) for 20 min at 37° C., in 5% CO2. Test compounds are added with or without […] forskolin and incubated for an additional 10 min at 37° C. The medium is then aspirated and the reaction stopped by the addition of 100 mM HCl or other methods. The plates are stored at 4° C. for 15 min, and the cAMP content in the stopping solution is measured by radioimmunoassay. Radioactivity may be quantified using a gamma counter equipped with data reduction software. Specific modifications may be performed to optimize the assay for the receptor or to alter the detection method of cAMP.
COS-7 cells were transiently transfected with rSNORF33 gene using the calcium phosphate method and plated in 96-well plates. 48 hours after transfection, cells were washed twice with Dulbecco's phosphate buffered saline (PBS) supplemented with 10 mM HEPES, 10 mM glucose, 5 mM theophylline and 10 μM pargyline and were incubated in the same buffer for 20 min at 37° C., in […] 5% CO2. Test compounds were added and cells were incubated for an additional 10 min at 37° C. The medium was then aspirated and the reaction stopped by the addition of 100 mM HCl. The plates were stored at −20° C. for 2-5 days. For cAMP measurement, plates were thawed and the cAMP content in each well was measured by radioimmunoassay cAMP Scintillation Proximity Assay (Amersham Pharmacia Biotech). Radioactivity was quantified using microbeta Trilux counter (Wallac).

Experiment [3] addresses T2, rSNORF33. Nature of the experiment: Cl- currents in Xenopus oocytes expressing rSNORF33 and CFTR (voltage clamp). Type of experiment: cell-based. As to conditions: for Cl- currents elicited: at 100 μM. As to the method: Female Xenopus laevis (Xenopus-1, Ann Arbor, Mich.) were anesthetized in 0.2% tricain (3-aminobenzoic acid ethyl ester, Sigma Chemical Corp.) and a portion of ovary was removed using aseptic technique (Quick and Lester, 1994). Oocytes were defolliculated, using 3 mg/ml collagenase (Worthington Biochemical Corp., Freehold, N.J.) in a solution containing 82.5 mM NaCl, 2 mM KCl, 1 mM MgCl2 and 5 mM HEPES, pH 7.5, and injected (Nanoject, Drummond Scientific, Broomall, Pa.) 24 h later with 50-70 nl of individual mRNAs or mRNA mixtures (see below).
Elevation of intracellular cAMP is monitored in oocytes by expression of the cystic fibrosis transmembrane conductance regulator (CFTR) whose Cl^−-selective pore opens in response to phosphorylation by protein kinase A (Riordan, 1993). To prepare RNA transcripts for expression in oocytes, a template was created by PCR using 5′ and 3′ primers derived from the published sequence of the CFTR gene (Riordan, 1993). The 5′ primer included the sequence coding for T7 polymerase so that transcripts could be generated directly from the PCR products without cloning. Oocytes were injected with 10 ng of CFTR mRNA in addition to 10-15 ng mRNA for SNORF33. Electrophysiological recordings were made after a 2-3 day incubation at 18° C.
Dual electrode voltage clamp (“GeneClamp”, Axon Instruments Inc., Foster City, Calif.) was performed using 3 M KCl-filled glass microelectrodes having resistances of 1-3 Mohms. Unless otherwise specified, oocytes were voltage clamped at a holding potential of −80 mV. During recordings, oocytes were bathed in continuously flowing (1-3 ml/min) medium containing 96 mM NaCl, 2 mM KCl, 1.8 mM CaCl2, 1 mM MgCl2, and 5 mM HEPES, pH 7.5 (ND96). […] Experiments were carried out at room temperature. All values are expressed as mean±standard error of the mean.

In experiment [4] the target is T2, rSNORF33. Described as above. Type of experiment: cell-based. The note with it: test compound 100 μM except where noted; 100 nM TYR.
Another experiment has as its target T3, mouse SNORF33 (Mus musculus, UniProt Q923Y8).
T3 construct: expressed in transfected cells; host or cells: COS-7 (membranes)
Description: [3H]-TYR binding (saturation and displacement) to mouse SNORF33 COS-7 membranes. As to the method: as §1, §2

The mark [5] stands for this setting: transiently transfected COS-7 cells, 3–8 experiments, read-out: Mean EC50 ± S.E.M., stimulation of rSNORF33 measured by intracellular cAMP release.

SMILES strings stand for the structures. “And” between values parts separate entries of the source, which are not always exact repeats. Equal entries are not always repeated.

T3 sequence (Q923Y8 whole entry): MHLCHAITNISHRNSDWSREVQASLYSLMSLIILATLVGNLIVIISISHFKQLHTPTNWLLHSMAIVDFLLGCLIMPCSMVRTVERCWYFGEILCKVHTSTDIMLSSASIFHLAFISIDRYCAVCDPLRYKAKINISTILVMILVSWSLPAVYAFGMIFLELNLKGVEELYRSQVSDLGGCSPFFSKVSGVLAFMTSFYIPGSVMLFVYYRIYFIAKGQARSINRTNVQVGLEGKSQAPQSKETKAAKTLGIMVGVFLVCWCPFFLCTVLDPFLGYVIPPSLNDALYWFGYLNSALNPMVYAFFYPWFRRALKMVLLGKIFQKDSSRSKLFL

For orientation: Ki means the dissociation constant of the complex between target and ligand, obtained from inhibition or displacement. Consider `NCCc1cccc(O)c1` [3-OH-PEA], for which the Ki on hSNORF33 was determined as 79 ± 16 nM; at rSNORF33 [1] it was 529 ± 236 nM.

One may read the EC50 as the concentration that produces a half-maximal response. As to `NCCc1c[nH]c2ccc(F)cc12` [5-Fluoro-Tryptamine], on rSNORF33 [2] (setting [5]), the EC50 came out at 232 ± 38 nM.

Turning to `COc1ccc2[nH]cc(CCN)c2c1` [5-Methoxy-Tryptamine], the EC50 on rSNORF33 [2] (setting [5]) was found to be 414 ± 161 nM. Besides, the Ki at rSNORF33 [1] was determined as 209 ± 68 nM.

For the compound `Cc1ccc2[nH]cc(CCN)c2c1` [5-Methyl-Tryptamine], the EC50 on rSNORF33 [2] (setting [5]) was 752 ± 285 nM.

Turning to `CNCCCN1c2ccccc2CCc2ccccc21` [Desipramine], the EC50 at rSNORF33 [2] (setting [5]) came out at 4300 ± 1870 nM.

Turning to `NCCc1ccc(O)c(O)c1` [Dopamine (DA), Dopamine], the “Cl- currents elicited” value on rSNORF33 [3] is listed as “more weakly”.

Consider `NCCC(=O)c1ccccc1N` [Kynuramine], for which the Ki on hSNORF33 turned out to be 1390 ± 810 nM; at rSNORF33 [1] it was 485 ± 9 nM. On rSNORF33 [2] (setting [5]), the concentration giving a half-maximal response (EC50) came out at 90 ± 20 nM.

For the compound `CN[C@@H](C)Cc1ccccc1` [Methamphetamine], the figures for the Ki at hSNORF33 and on rSNORF33 [1] were 189 ± 102 nM and 391 ± 246 nM, respectively. Further, the EC50 on rSNORF33 [2] (setting [5]) stood at 115 ± 66 nM.

On to `NC[C@H](O)c1ccc(O)c(O)c1` [NE, norepinephrine], for which, on rSNORF33 [2], the “Agonist activity at cloned rSNORF33 receptor” value was “inactive”.

Take `CC(COc1ccccc1)N(CCCl)Cc1ccccc1` (centres unmarked) [Phenoxybenzamine]: the “Antagonism of TYR stimulation of rSNORF33” value (“Antagonism” below) at rSNORF33 [4] is recorded as “irreversible inhibition”.

`CC(N)C(O)c1ccccc1` (centres unmarked) [Phenylpropanolamine (PPA), Phenylpropanolamine]: a half-maximal effect at rSNORF33 [2] (EC50) was put at 1800 ± 1380 nM.

Consider `NCCc1c[nH]c2ccc(O)cc12` [Serotonin (5-HT), 5-Hydroxytryptamine], for which the “Cl- currents elicited” value at rSNORF33 [3] is “more weakly”. Further, the concentration giving a half-maximal response (EC50) on rSNORF33 [3] (oocytes expressing rSNORF33 and CFTR, -80 mV, mean ± S.E.M., read-out: Calculated EC50, Cl- current) was 3.776 ± 0.00317 µM; on rSNORF33 [2] (setting [5]) it was 1240 ± 526 nM. In addition, on rSNORF33 [2] (cAMP assay), the “Fold less potent than the three trace amines (TYR, PEA, T) in activating rSNORF33” value worked out at 70 fold. In addition, the Ki on rSNORF33 [1] turned out to be 976 ± 120 nM.

Broadly, the Kd is the concentration at which binding is half-saturated. Regarding `NCCc1ccc(O)cc1` [[^3H]-TYR], the “Specific binding as % of total binding” value at mouse SNORF33 (at about 15 nM [3H]-TYR, mouse SNORF33) is “approximately 94%”; on hSNORF33 (at about 15 nM [3H]-TYR, human SNORF33), around 70%. In addition, the “Bmax, saturation binding” value on mouse SNORF33 (mouse SNORF33 membranes) was 1090 fmol/mg protein and 848 fmol/mg protein; at hSNORF33 (human SNORF33 membranes), 440 fmol/mg protein and 603 fmol/mg protein; at rSNORF33 [1] (rSNORF33 COS-7 membranes, n=2), 1400 fmol/mg protein and 1164 fmol/mg protein. For the same compound, the Specific binding on rSNORF33 [1] (20 nM radioligand, rSNORF33) worked out at 90%. On rSNORF33 [1] (rSNORF33 COS-7 membranes, n=2), the Kd was 12.5 nM and 14.8 nM.

Take `c1ccc(C2CC2)c(OCC2=NCCN2)c1` [cirazoline]: at rSNORF33 [3] (test compound 100 μM except where noted, 100 nM TYR (EC80)), the “Inhibition of the response to TYR” value is reported as “greater than 90%”.

Consider `NCCc1c[nH]cn1` [histamine], for which the “Agonist activity at cloned rSNORF33 receptor” value on rSNORF33 [2] was “inactive”.

In the case of `CN1C[C@H](CNC(=O)OCc2ccccc2)C[C@@H]2c3cccc4c3c(cn4C)C[C@H]21` [metergoline], the “Antagonism” value at rSNORF33 [4] is “significantly block”.

With `CN1CCN2c3ccccc3Cc3ccccc3C2C1` (centres unmarked) [mianserin], the “Antagonism” value on rSNORF33 [4] is on record as “did not significantly inhibit”.

As to `Cc1ccc(N(CC2=NCCN2)c2cccc(O)c2)cc1` [phentolamine], the “Antagonism” value at rSNORF33 [4] was “agonist effect”.

For the compound `CC(C)NCC(O)COc1cccc2[nH]ccc12` (centres unmarked) [pindolol], the “Antagonism” value at rSNORF33 [4] is recorded as “significantly block”.

Regarding `CC(C)NCC(O)COc1cccc2ccccc12` (centres unmarked) [propanolol], the “Antagonism” value on rSNORF33 [4] is listed as “significantly block”.

Regarding `COC(=O)[C@H]1[C@H]2C[C@H]3c4[nH]c5ccccc5c4CCN3C[C@H]2CC[C@@H]1O` [rauwolscine], the “Antagonism” value on rSNORF33 [4] is reported as “did not significantly inhibit”.

On to `COC(=O)[C@@H]1[C@H]2C[C@H]3c4[nH]c5ccccc5c4CCN3C[C@@H]2CC[C@@H]1O` [yohimbine], for which the “Antagonism” value on rSNORF33 [4] is given as “did not significantly inhibit”.

(Values after patent US7517658B2, “Methods for preparing compositions using a SNORF33 receptor” (H. Lundbeck A/S, priority 1999, dated 2009).)
